{"source": "paper PMC10976246", "about": "“Amide-to-Triazole Switch in Somatostatin-14-Based Radioligands: Impact on Receptor Affinity and In Vivo Stability” (Pharmaceutics, 2024)", "key": {"hSST3R": {"target": "T1, hSST3R (Homo sapiens, UniProt P32745)", "T1 construct": "S. Schultz (Jena, Germany); host or cells: HEK293", "T1 sequence (P32745 whole entry)": "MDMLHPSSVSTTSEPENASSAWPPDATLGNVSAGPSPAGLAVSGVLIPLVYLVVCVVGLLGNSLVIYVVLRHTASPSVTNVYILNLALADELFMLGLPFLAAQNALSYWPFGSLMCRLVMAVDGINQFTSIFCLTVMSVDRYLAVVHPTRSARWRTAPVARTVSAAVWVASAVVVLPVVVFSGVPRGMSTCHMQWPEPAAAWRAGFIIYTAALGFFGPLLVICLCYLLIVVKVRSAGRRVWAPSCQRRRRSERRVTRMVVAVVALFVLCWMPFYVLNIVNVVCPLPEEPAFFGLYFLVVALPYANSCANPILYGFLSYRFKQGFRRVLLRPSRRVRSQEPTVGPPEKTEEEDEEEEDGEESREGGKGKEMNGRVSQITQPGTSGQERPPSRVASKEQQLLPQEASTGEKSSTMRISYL", "assay": "Competition binding against [125I][I-Tyr25]LTT-SST-28, HEK293-SST3R cell membranes", "conditions": "vs [125I][I-Tyr25]LTT-SST-28, 1 h at 22 °C, mean ± sd", "description": "After an incubation period of 1 h at 22 °C, the reaction was stopped by dilution with ice-cold washing buffer (10 mM HEPES at pH 7.4, 150 mM NaCl, 3 mL). The samples were filtered through 1%PEI presoaked glass fiber filters using a Brandel® cell harvester. After thorough washing with ice-cold washing buffer (2 × 3 mL), the filters were collected and measured in the γ-counter."}, "in vitro": {"assay": "in vitro", "type": "in vitro ADME", "conditions": "human, plasma", "protocol": "Plasma stability studies were conducted in vitro by incubating the radioligands (in 100 µL PBS) in 1400 µL of human blood plasma (H4522–20ML, Sigma-Aldrich, Vienna, Austria) to a final concentration of 250 nM (approximately 5 MBq). After an incubation period of 6 h at 37 °C, aliquots of 100 µL were mixed with 100 µL of MeCN for protein precipitation. The mixtures were vortexed and centrifuged for 10 min (15,000× g) at 5 °C and the supernatants were collected. The supernatants (50 µL) were mixed with 0.1% aqueous TFA (50 µL) for posterior γ-HPLC analyses on a Chromolith® RP-18 performance column (2 µm, 4.6 mm × 100 mm; Merck Millipore, Vienna, Austria) eluted at a flow rate of 3 mL/min with the linear gradient from 90% A/10% B to 50% A/50% B in 14 min (A: 0.1% aqueous TFA and B: MeCN) (n = 2)."}, "[1]": {"target": "T2, SST2R-expressing AR42J cells (Rattus norvegicus, UniProt P30680)", "T2 construct": "The SST2R-expressing rat pancreatic cells (AR42J) were cultured; host or cells: AR42J rat pancreatic cells", "T2 sequence (P30680 whole entry)": "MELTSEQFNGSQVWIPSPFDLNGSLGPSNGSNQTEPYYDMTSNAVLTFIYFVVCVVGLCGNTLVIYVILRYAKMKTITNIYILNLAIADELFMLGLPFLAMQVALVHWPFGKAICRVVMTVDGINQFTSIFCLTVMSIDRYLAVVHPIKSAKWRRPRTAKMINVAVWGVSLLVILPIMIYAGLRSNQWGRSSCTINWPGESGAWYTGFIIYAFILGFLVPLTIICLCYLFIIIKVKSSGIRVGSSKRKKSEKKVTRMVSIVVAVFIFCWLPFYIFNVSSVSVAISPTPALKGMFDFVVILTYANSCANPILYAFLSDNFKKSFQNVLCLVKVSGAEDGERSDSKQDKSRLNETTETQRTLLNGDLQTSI", "assay": "Receptor saturation binding assay in AR42J cells", "conditions": "2 h, n = 2–3 in triplicates", "description": "AR42J cells were seeded in six-well plates (1 × 10^6 cells/well) 2 days before the assay. One hour prior to the experiment, the medium was removed, the cells were washed with PBS (1 mL) and fresh assay medium (DMEM with Glutamax-1 and supplemented with 1% FBS (v/v)) was added (1.3 mL/well). […] The determination of the unspecific binding was conducted by incubating each test radioligand in the presence of excess TATE, which was added in 100 μL of PBS to a final concentration of 5 µM. The six-well plates were incubated under standard culturing conditions for 2 h; the medium was removed, the cells were washed with PBS (2 × 1 mL) and lysed as described above. The cell lysates were collected and measured in the γ-counter."}, "HEK293-hSST2R xenografts": {"test_system": "HEK293-hSST2R xenografts", "conditions": "male, SCID, mouse, in vivo, iv, 3 nmol, 4 h"}, "in vivo": {"assay": "in vivo", "conditions": "male, SCID, mouse, iv, 3 nmol, total radioactivity"}}, "note": "Numbered stars: 1 amine (or outer) side, 2 acyl side, 3 side chain; on linkers, the order of the positions; unused ones are H or OH. Bridge positions count the residues as written; N and C are the ends. Square brackets hold non-standard residues; d marks the D form. Peptide text beside a SMILES is read from it. * marks the point of attachment. X2 = O=C([C@H](Cc1ccccc1)n1cc([C@H](Cc2ccccc2)N[*:1])nn1)[*:2]; X1 = NC(=O)C[C@H](N[*:1])c1cn([C@@H](Cc2ccccc2)C(=O)[*:2])nn1; DOTA = O=C(O)CN1CCN(CC(=O)O)CCN(CC(=O)*)CCN(CC(=O)O)CC1", "data": [{"smiles": "C[C@H](NC(=O)CN1CCN(CC(=O)O)CCN(CC(=O)O)CCN(CC(=O)O)CC1)C(=O)NCC(=O)N[C@H]1CSSC[C@@H](C(=O)O)NC(=O)[C@H](CO)NC(=O)[C@H]([C@@H](C)O)NC(=O)[C@H](Cc2ccccc2)NC(=O)[C@H]([C@@H](C)O)NC(=O)[C@H](CCCCN)NC(=O)[C@@H](Cc2c[nH]c3ccccc23)NC(=O)[C@H](Cc2ccccc2)NC(=O)[C@H](Cc2ccccc2)n2cc(nn2)[C@H](CC(N)=O)NC(=O)[C@H](CCCCN)NC1=O", "note": "[XG1, [DOTA,Asn^5-Ψ[Tz]-Phe^6, D-Trp^8]SST-14] ({DOTA}-AGCK[X1]F[dW]KTFTSC-OH; disulfide 3-13)", "values": [{"measurement": "IC50", "setting": "hSST3R", "result": "0.003 ± 0.0009", "unit": "µM"}]}, {"smiles": "C[C@H](NC(=O)CN1CCN(CC(=O)O)CCN(CC(=O)O)CCN(CC(=O)O)CC1)C(=O)NCC(=O)N[C@H]1CSSC[C@@H](C(=O)O)NC(=O)[C@H](CO)NC(=O)[C@H]([C@@H](C)O)NC(=O)[C@H](Cc2ccccc2)NC(=O)[C@H]([C@@H](C)O)NC(=O)[C@H](CCCCN)NC(=O)[C@@H](Cc2c[nH]c3ccccc23)NC(=O)[C@H](Cc2ccccc2)NC(=O)[C@H](Cc2ccccc2)NC(=O)[C@H](CC(N)=O)NC(=O)[C@H](CCCCN)NC1=O", "note": "[[^111In]In-AT2S, metal not drawn, reference compound]", "values": [{"measurement": "remaining at 6 h, 250 nM", "setting": "in vitro", "result": "> 90", "unit": "%"}, {"measurement": "Kd", "setting": "[1]", "result": "0.012 ± 0.00388", "unit": "µM"}]}, {"smiles": "C[C@H](NC(=O)CN1CCN(CC(=O)O)CCN(CC(=O)O)CCN(CC(=O)O)CC1)C(=O)NCC(=O)N[C@H]1CSSC[C@@H](C(=O)O)NC(=O)[C@H](CO)NC(=O)[C@H]([C@@H](C)O)NC(=O)[C@H](Cc2ccccc2)NC(=O)[C@H]([C@@H](C)O)NC(=O)[C@H](CCCCN)NC(=O)[C@@H](Cc2c[nH]c3ccccc23)NC(=O)[C@H](Cc2ccccc2)NC(=O)[C@H](Cc2ccccc2)n2cc(nn2)[C@H](CC(N)=O)NC(=O)[C@H](CCCCN)NC1=O", "note": "[[^111In]In-XG1, metal not drawn] ({DOTA}-AGCK[X1]F[dW]KTFTSC-OH; disulfide 3-13)", "values": [{"measurement": "remaining at 6 h, 250 nM", "setting": "in vitro", "result": "> 90", "unit": "%"}, {"measurement": "kidney uptake", "setting": "HEK293-hSST2R xenografts", "result": "> 200", "unit": "% IA/g"}, {"measurement": "tissue uptake at 4 h", "setting": "in vivo; HEK293-hSST2R tumor uptake", "result": 1.61, "unit": "%ID/g"}, {"measurement": "tissue uptake at 4 h", "setting": "in vivo; kidney uptake", "result": 310, "unit": "%ID/g"}, {"measurement": "tissue uptake at 4 h", "setting": "in vivo; wtHEK293 (SST2R-negative) control tumor uptake", "result": 0.56, "unit": "%ID/g"}]}, {"smiles": "C[C@H](NC(=O)CN1CCN(CC(=O)O)CCN(CC(=O)O)CCN(CC(=O)O)CC1)C(=O)NCC(=O)N[C@H]1CSSC[C@@H](C(=O)O)NC(=O)[C@H](CO)NC(=O)[C@H]([C@@H](C)O)NC(=O)[C@H](Cc2ccccc2)NC(=O)[C@H]([C@@H](C)O)NC(=O)[C@H](CCCCN)NC(=O)[C@@H](Cc2c[nH]c3ccccc23)NC(=O)[C@H](Cc2ccccc2)n2cc(nn2)[C@H](Cc2ccccc2)NC(=O)[C@H](CC(N)=O)NC(=O)[C@H](CCCCN)NC1=O", "note": "[[^111In]In-XG2, metal not drawn] ({DOTA}-AGCKN[X2][dW]KTFTSC-OH; disulfide 3-13)", "values": [{"measurement": "Kd", "setting": "[1]", "result": "> 0.05", "unit": "µM"}]}]}
